Laboratory results reported in the C3SDB collision cross section collection.
Several values for one entry are separate records, joined by “and”; a condition that tells them apart may be missing. Identical values can stand only once.

Key:
[1] = instrument: TW, calibrated with phosphatidylcholines (ESI+) and phosphatidylethanolamines (ESI-), doubly charged cardiolipins calibrated with poly-DL-…
[2] = instrument: DT, single field
[3] = instrument: DT, stepped-field
[4] = instrument: DT, single field, calibrated with Agilent tune mix (Agilent)

CCCCCC/C=C\CCCCCCCC(=O)OC[C@H](COP(=O)(O)OCCNC(=O)CCCCCCCCCCCCCCC)OC(=O)CCCCCCCCCCCCC [AcylPE(46:1)]
collision cross section (N2) ([1]; [M-H]-): 310.12 Å²

CCCCCC/C=C\CCCCCCCC(=O)OC[C@H](COP(=O)(O)OCCNC(=O)CCCCCCCCCCCCCCC)OC(=O)CCCCCCCCCCCCCC [AcylPE(47:1)]
collision cross section (N2) ([1]; [M+Na]+): 321.4 Å² | collision cross section (N2) ([1]; [M-H]-): 313.42 Å²

CCCCCC/C=C\CCCCCCCC(=O)OC[C@H](COP(=O)(O)OCCNC(=O)CCCCCCCCCCCCCCC)OC(=O)CCCCCCCC1CC1CCCCCCCC (stereo not given in full) [AcylPE(51:2)]
collision cross section (N2) ([1]; [M-H]-): 325.65 Å²

CCCCCC/C=C\CCCCCCCC(=O)OC[C@H](COP(=O)(O)OCCNC(=O)CCCCCCCCCCCCCCC)OC(=O)CCCCCCC/C=C\CCCCCCCCCC [AcylPE(52:2)]
collision cross section (N2) ([1]; [M-H]-): 328.83 Å²

CCCCCC/C=C\CCCCCCCC(=O)OC[C@H](COP(=O)(O)OC[C@@H](O)COC(=O)CCCCCCCCCCCCCCC)OC(=O)CCCCCCCCCCCCC [AcylPG(46:1)]
collision cross section (N2) ([1]; [M-H]-): 310.71 Å²

CCCC/C=C\CCCCCCCC(=O)O[C@H](COC(=O)CCCCCCC/C=C\CCCCCC)COP(=O)(O)OC[C@@H](O)COC(=O)CCCCCCCCCCCCCCC [AcylPG(46:2)]
collision cross section (N2) ([1]; [M-H]-): 312.53 Å²

CCCCCC/C=C\CCCCCCCC(=O)OC[C@H](COP(=O)(O)OC[C@@H](O)COC(=O)CCCCCCCCCCCCCCC)OC(=O)CCCCCCC/C=C\CCCCCC [AcylPG(48:2)]
collision cross section (N2) ([1]; [M-H]-): 315.28 Å²

CCCCCC/C=C\CCCCCCCC(=O)OC[C@H](COP(=O)(O)OC[C@@H](O)COC(=O)CCCCCCCCCCCCCCC)OC(=O)CCCCCCCC1CC1CCCCCC (stereo not given in full) [AcylPG(49:2)]
collision cross section (N2) ([1]; [M-H]-): 318.87 Å²

CCCCCC/C=C\CCCCCCCC(=O)OC[C@H](COP(=O)(O)OC[C@@H](O)COC(=O)CCCCCCCCCCCCCCC)OC(=O)CCCCCCCC1CC1CCCCCCCC (stereo not given in full) [AcylPG(51:2)]
collision cross section (N2) ([1]; [M-H]-): 326.79 Å²

CCCCCC/C=C\CCCCCCCC(=O)OC[C@H](O)COP(=O)(O)OC[C@@H](COC(=O)CCCCCCC/C=C\CCCCCC)OC(=O)CCCCCCCC1CC1CCCCCCCC (stereo not given in full) [AcylPG(51:3)]
collision cross section (N2) ([1]; [M-H]-): 325 Å²

CCCCCC/C=C\CCCCCCCC(=O)OC[C@H](COP(=O)(O)OC[C@@H](O)COC(=O)CCCCCCCCCCCCCCC)OC(=O)CCCCCCCC1CC1CCCCCCCCCC (stereo not given in full) [AcylPG(53:2)]
collision cross section (N2) ([1]; [M-H]-): 333.78 Å²

CCCCCC/C=C\CCCCCCCC(=O)OC(COC(=O)CCCCCCCCCCCCCCC)COP(=O)(O)OCC(O)COP(=O)(O)OCC(COC(=O)CCCCCCCCCCCCCCC)OC(=O)CCCCCCC/C=C\CCCCCC (stereo not given) [CL(64:2)]
collision cross section (N2) ([1]; [M+2K]2+): 422.9 Å² | collision cross section (N2) ([1]; [M-2H]2-): 397 Å²

CCCCCC/C=C\CCCCCCCC(=O)OC(COC(=O)CCCCCCCCCCCCCCC)COP(=O)(O)OCC(O)COP(=O)(O)OCC(COC(=O)CCCCCCCCCCCCCCC)OC(=O)CCCCCCCC1CC1CCCCCC (stereo not given) [CL(65:2)]
collision cross section (N2) ([1]; [M+2K]2+): 425.4 Å² | collision cross section (N2) ([1]; [M-2H]2-): 399.77 Å²

CCCCCC/C=C\CCCCCCCC(=O)OCC(COP(=O)(O)OCC(O)COP(=O)(O)OCC(COC(=O)CCCCCCC/C=C/CCCCCCCC)OC(=O)CCCCCCC/C=C\CCCCCC)OC(=O)CCCCCCC/C=C\CCCCCCCC (stereo not given) [CL(68:4)]
collision cross section (N2) ([1]; [M-2H]2-): 406.81 Å²

CCCCC/C=C\CCCCCCCC(=O)O[C@H](COC(=O)CCCCCCC/C=C\CCCCCC)COP(=O)([O-])OCC[N+](C)(C)C [PC(31:2)]
collision cross section (N2) ([2]; [M+H]+): 272.28 Å² | collision cross section (N2) ([3]; [M+K]+): 283.6 Å²

CCCCC/C=C\C/C=C\CCCCCCCCCC(=O)O[C@H](COC(=O)CCCCCCCCCCCC)COP(=O)([O-])OCC[N+](C)(C)C [PC(33:2)]
collision cross section (N2) ([2]; [M+H]+): 279.23 Å² | collision cross section (N2) ([3]; [M+K]+): 291.5 Å² | collision cross section (N2) ([4]; [M+H]+): 279.8 Å²

CCCCCCCCCCCCC=CC[C@@H](O)[C@H](COP(=O)([O-])OCC[N+](C)(C)C)NC(=O)CCCCCCCCCCCCCCCCCCCCC [SM(40:1)]
collision cross section (N2) ([2]; [M+H]+): 299.29 Å² | collision cross section (N2) ([3]; [M+Na]+): 303.9 Å² | collision cross section (N2) ([4]; [M+HCOO]-): 297.5 Å² | collision cross section (N2) ([4]; [M+H]+): 300.7 Å² | collision cross section (N2) ([4]; [M+Na]+): 300.5 Å²

CCCCCCCCCCCCC=CC[C@@H](O)[C@H](COP(=O)([O-])OCC[N+](C)(C)C)NC(=O)CCCCCCCCCCCCCCCCCCCCCCCC [SM(43:1)]
collision cross section (N2) ([2]; [M+H]+): 308.58 Å² | collision cross section (N2) ([3]; [M+Na]+): 312.5 Å²

CCCCC/C=C\C/C=C\C/C=C\CCCCCCCCC(=O)OC[C@@H](COC(=O)CCCCCCCCCCCCC)OC(=O)CCCCCCCCCCCCC [TG(50:3)]
collision cross section (N2) ([2]; [M+NH4]+): 311.73 Å² and 314.12 Å² | collision cross section (N2) ([2]; [M+Na]+): 310.81 Å² and 313.16 Å² | collision cross section (N2) ([4]; [M+NH4]+): 313 Å²

CCCCCCCCC/C=C\CCCCCCCC(=O)OC[C@@H](COC(=O)CCCCCCCCCCCC)OC(=O)CCCCCCC/C=C\CCCCCCCCC [TG(51:2)]
collision cross section (N2) ([2]; [M+Na]+): 315.77 Å² and 317.68 Å² | collision cross section (N2) ([4]; [M+NH4]+): 317.2 Å²

CCCCC/C=C\CCCCCCCC(=O)OC[C@H](COC(=O)CCCCCCC/C=C\CCCCCCCC)OC(=O)CCCCCCC/C=C\CCCCCCCC [TG(51:3)]
collision cross section (N2) ([2]; [M+NH4]+): 314.4 Å² and 316.33 Å² and 320.05 Å² | collision cross section (N2) ([2]; [M+Na]+): 313.29 Å² and 315.37 Å² | collision cross section (N2) ([4]; [M+NH4]+): 314.6 Å²

CCCC/C=C\C/C=C\CCCCCCCC(=O)O[C@@H](COC(=O)CCCCCCC/C=C\C/C=C\CCCCC)COC(=O)CCCCCCCCCCCCCCC [TG(51:4)]
collision cross section (N2) ([2]; [M+NH4]+): 312.43 Å² and 314.2 Å² and 317.35 Å² | collision cross section (N2) ([2]; [M+Na]+): 313.17 Å² | collision cross section (N2) ([4]; [M+NH4]+): 312.1 Å²

CCCCCCC/C=C\CCCCCCCC(=O)O[C@H](COC(=O)CCCCCCCCCCCCCCCC)COC(=O)CCCCCCCCCCCCCCCCC [TG(52:1)]
collision cross section (N2) ([2]; [M+Na]+): 320.83 Å² and 322.81 Å² | collision cross section (N2) ([4]; [M+NH4]+): 323.6 Å²

CCCCC/C=C\C/C=C\C/C=C\CCCCC(=O)O[C@H](COC(=O)CCCCCCCCCCC)COC(=O)CCCCCCCCCCC/C=C\C/C=C\CCCCC [TG(52:5)]
collision cross section (N2) ([2]; [M+Na]+): 312.33 Å² and 314.31 Å² | collision cross section (N2) ([4]; [M+NH4]+): 314.7 Å²

CCCCC/C=C\C/C=C\CCCCCCCCCC(=O)O[C@H](COC(=O)CCCCCCCCCCCC)COC(=O)CCCCCCCCCCCCCCCCCCCCC [TG(55:2)]
collision cross section (N2) ([2]; [M+NH4]+): 332.67 Å² and 335.01 Å² | collision cross section (N2) ([4]; [M+NH4]+): 329.2 Å²

CCCCCCC/C=C\CCCCCCCC(=O)OC[C@H](COC(=O)CCCCCCCCC/C=C\CCCCCCCCCC)OC(=O)CCCCCCC/C=C\CCCCCCC [TG(56:3)]
collision cross section (N2) ([2]; [M+Na]+): 331.24 Å² | collision cross section (N2) ([4]; [M+NH4]+): 332.6 Å²

CCCCC/C=C\C/C=C\CCCCCCCCCCCC(=O)OC[C@@H](COC(=O)CCCCCCCCCCC)OC(=O)CCCCCCCCCCC/C=C\C/C=C\CCCCC [TG(56:4)]
collision cross section (N2) ([2]; [M+NH4]+): 327.84 Å² and 330.13 Å² and 333.95 Å² | collision cross section (N2) ([2]; [M+Na]+): 329.41 Å² | collision cross section (N2) ([4]; [M+NH4]+): 330.8 Å²

CC/C=C\C/C=C\C/C=C\C/C=C\C/C=C\CCCC(=O)O[C@H](COC(=O)CCCCCCCCCCCCCCC)COC(=O)CCCCCCCCCCCCCCCCCCCCC [TG(58:5)]
collision cross section (N2) ([2]; [M+NH4]+): 334.35 Å² | collision cross section (N2) ([4]; [M+NH4]+): 334.6 Å²

CCCC/C=C\C/C=C\CCCCCCCC(=O)OC[C@H](COC(=O)CCCCCCCCCCCCCCCCCCCCC)OC(=O)CCCCCCCCC/C=C\CCCCCCCC [TG(59:3)]
collision cross section (N2) ([2]; [M+NH4]+): 342.22 Å² and 344.48 Å² | collision cross section (N2) ([4]; [M+NH4]+): 337.6 Å²
